Reference: patent US8765389B2, “Genetic products which are differentially expressed in tumors and use thereof” (Ganymed Pharmaceuticals AG, priority 2003, dated 2014)
d = 2'-deoxy (DNA); r = 2'-OH (RNA)

Assays:
Format in all cases: cell-based, human
TPTE expression = assay: Methylation studies: induceability of TPTE expression by genomic demethylation, real-time RT-PCR; details: 72 h, 2 μM or 10 μM
Protocol: Real-time RT-PCR analysis of the TPTE expression in the non-expressing cell lines BT549 and HCT116 following treatment of the cells with 2 μM and 10 μM 5-aza-2′-desoxycytidine, respectively, and in HCT116 cells which are deficient for DNA methyltransferase.
For investigating the induceability of TPTE expression by genomic demethylation, TPTE negative cell lines BT549 (Mamma-Ca) and HCT116 (Colon-Ca) were cultivated for 72 h with 2 μM or 10 μM 5-aza-2′-desoxycytidine. Then, the TPTE expression was quantified by means of real-time RT-PCR. Furthermore, TPTE expression was quantified in DNA methyl transferase (DNMT) deficient HCT116 cells. While DNMT1 (HCT116^DNMT1−/−) or DNMT3b (HCT116^ENMT3b−/−) deficient cells show an almost unchanged methylation pattern when compared to the parental cell line (HCT116^Par), cells in which both DNMTs have been simultaneously deleted (HCT116^DKO) are characterized by an almost complete demethylation of genomic DNA.
A quantitative real-time PCR (40 cycles, initial denaturation 15 min 95° C., 30 sec 94° C., 30 sec 62° C. and 30 sec 72° C.) was performed using specific primers (sense […] (SEQ ID NO: 823); antisense […] (SEQ ID NO: 28)) (FIG. 19). […] The ectopic expression of many known CT genes in tumors is induced by promoter demethylation. […]

TPTE mRNA = assay: Knock-down of TPTE expression in PC-3 cells using RNAi, real-time RT-PCR; details: PC-3 cells electroporated with 1 μM siRNA, 24 hours later, quantitative real-time RT-PCR
Protocol: PC-3 cells were electroporated using 1 μM siRNA specific for TPTE. After 24 h mRNA expression was quantified by real-time RT-PCR. Non-electroporated cells and cells electroporated with DsRed siRNA served as controls.
Expression of TPTE, MS4A12, PCSC and BRCO1 was also quantified using real-time PCR, however, the PCR products were detected using SYBR-Green as reporter dye. The reporter fluorescence of SYBR-Green is suppressed in solution and the dye is only active following binding to double-stranded DNA fragments. The increase of SYBR-Green fluorescence due to the specific amplification by means of GOI-specific primers following each PCR cycle is used for quantification. Quantification of expression of the target gene is performed absolute or relative to the expression of a control gene with constant expression in the tissues to be studied. LDHC expression was calculated by means of the ΔΔ-CT method (PE Biosystems, USA), after normalizing the samples to 18s RNA as “house-keeping” gene. The reactions were carried out in duplex mixtures and determined in triplicate. The QuantiTect SYBR-Green PCR kit (Qiagen, Hilden) was used according to the manufacturer's instructions. cDNA was synthesized using the High Capacity cDNA Archive Kit (PE Biosystems, USA) and hexamer primers according to the manufacturer's information. […]

[1] = test system: PC-3 prostate carcinoma cells; assay: Boyden chamber (Transwell) migration assay of PC-3 cells after TPTE-siRNA electroporation

Compound	induction of TPTE expression (TPTE expression; BT549 (Mamma-Ca) cells)	induction of TPTE expression (TPTE expression; HCT116 (Colon-Ca) cells)	decrease in TPTE expression (TPTE mRNA) [%]	cell migration in the Boyden chamber assay ([1]; 48 h after electroporation with 1 μM TPTE-siRNA)	reduction of the migration rate ([1]; Transwell migration assay, compared to untreated cells and cells electroporated with irrelevant siRNA) [%]
Nc1ncn([C@H]2C[C@H](O)[C@@H](CO)O2)c(=O)n1 [5-aza-2′-desoxycytidine]	strong induction of TPTE expression	strong induction of TPTE expression	–	–	–
TPTE-siRNA: siRNA duplex (SEQ ID NO: 826/827) targeting nucleotides 2043-2061 of the TPTE mRNA sequence (NM_013315) (chain 1 CCCUGCCACAUGUUCAUAUTT; chain 2 AUAUGAACAUGUGGCAGGGTT; sugars from the 5' end r19 d2, backbone not given here)	–	–	70	Relevant decrease of cell migration	70
